Experimental data from patent publication US20240270731A1, “[…]” (ALEBUND PHARMACEUTICALS (HONG KONG) LIMITED, priority 2021, published 2024).

Assays:
[1] = 7-day repeated oral gavage, body weights of ICR mice; assay type: in vivo; details: for Weight Gain compared with Day 0: n=10
Source text: After 3 days of acclimatization, ICR mice were grouped according to their body weights. The day of grouping is designated as Day 0. […] The animals were weighed and recorded daily.

[2] = tested on: rat model of hyperlipidemia induced by high cholesterol diet; assay: Rat model of hyperlipidemia induced by high cholesterol diet (serum TG, NEFA); assay type: in vivo, Sprague-Dawley rats; details: for Serum TG / Serum NEFA: mean ± SD, n=6
Source text: On the day before the start of the administration (Day 0), the animals were divided into 7 groups based on body weights and serum indicators and were continually fed with the high-cholesterol diet. The treatment groups were orally dosed with either compound or vehicle while continuing the high-cholesterol diet for a total of 1 week. The animals were weighed daily before the treatment, and the compounds were given at 9:00-9:30 in the morning based on the body weight of the day.

[3] = tested on: db/db type 2 diabetes model; assay: Pharmacodynamics study on the db/db type 2 diabetes model; details: for Statistical difference (p) of the blood glucose level between OGTT treatment group and vehicle group: 0.2 mpk; for Statistical difference (p) of the blood glucose level between treatment group and vehicle group: random blood glucose
Source text: 45 db/db mice were evenly divided into 5 groups before the initiation of treatment based on the body weights, serum triglyceride (TG) levels, and random blood glucose levels.
All animals were weighed daily before each dosing and treated daily for 14 consecutive days.
All the data was imported into an Excel file and presented as Mean±SEM. Graphpad Prism 7.0 software was used for data statistical analysis by One-way or Two-way ANOVA, with P<0.05 as the criterion of significant differences.

[4] = tested on: rat model of unilateral ureteral obstruction; assay: Renal injury in rat model of unilateral ureteral obstruction; details: 0.2 mg/kg oral daily, 14 treatment days
Protocol: Housing temperature was maintained at 20-26° C. and humidity at 40%-60%. Rats were fed with a standard chow and allowed to access food and water ad libitum.
The formulation was prepared twice a week.
Vehicle or compounds were administrated by orally gavage daily. Unilateral ureteral obstruction was performed on the second day of compound treatment. Animals in model group, reference group and compound group underwent urethral ligation under isoflurane anesthesia one hour after receiving compound administration. A flank incision was cut to expose the left ureter, and a 4-0 surgical suture was used to perform two-point ligation to achieve urethral obstruction. Ureter was cut between the two ligation points. Animals in the control group were subjected to the same surgical treatment except the ligation and cut.
Rats were sacrificed after 14 days' compound treatment. The obstructed kidney was weighed and collected for histology. The tissue samples were fixed with formalin, and then paraffin embedded. The embedded tissue was sectioned and stained with hematoxylin & eosin and Masson trichrome to assess kidney structure and fibrosis.
The multiple comparison was analyzed with the Kruskal-Wallis non-parameter test. The Dunn's test was used to compare the difference to the model group.

[5] = 1 mg/kg (Aleglitazar: Day 6; Compound 2: Day 4 and 5; Compounds 4 and 10: Day 4 to Day 7)
[6] = Day 0 (day before treatment), group later dosed 0.2 mg/kg oral QD x 7 days
[7] = Day 0 (day before treatment), group later dosed 0.6 mg/kg oral QD x 7 days
[8] = Day 8, 0.2 mg/kg oral QD x 7 days
[9] = Day 8, 0.6 mg/kg oral QD x 7 days

Compound	Daily average weight gain compared with the vehicle group [1, 5]	Weight Gain compared with Day 0 ([1]; Day 2, 1 mg/kg oral QD) [g]	Weight Gain compared with Day 0 ([1]; Day 3, 1 mg/kg oral QD) [g]	Weight Gain compared with Day 0 ([1]; Day 4, 1 mg/kg oral QD) [g]	Weight Gain compared with Day 0 ([1]; Day 5, 1 mg/kg oral QD) [g]	Weight Gain compared with Day 0 ([1]; Day 6, 1 mg/kg oral QD) [g]	Weight Gain compared with Day 0 ([1]; Day 7, 1 mg/kg oral QD) [g]	Serum TG [2, 6] [mmol/L]	Serum TG [2, 7] [mmol/L]	Serum NEFA [2, 8] [µmol/L]	Serum TG [2, 8] [mmol/L]	Serum NEFA [2, 9] [µmol/L]	Serum TG [2, 9] [mmol/L]	also measured
[2H]c1c([2H])c([2H])c(-c2nc(CCOc3ccc(C[C@H](OC)C(=O)O)c4sccc34)c(C)o2)c([2H])c1[2H] (single isomer, unassigned) [Compound 4]	significantly higher	1.45 ± 0.34	2.75 ± 0.41	3.71 ± 0.46	4.26 ± 0.47	5.36 ± 0.54	5.91 ± 0.56	4.22 ± 1.71	4.00 ± 1.71	490.33 ± 113.61	2.46 ± 1.18	347.83 ± 113.61	1.93 ± 0.58	Weight Gain compared with Day 0 ([1]; Day 1, 1 mg/kg oral QD): 0.35 ± 0.24 g
CO[C@@H](Cc1ccc(OCCc2nc(-c3ccccc3)oc2C)c2ccsc12)C(=O)O [Aleglitazar, aleglitazar, reference compound]	significantly higher	1.64 ± 0.26	2.61 ± 0.51	3.33 ± 0.54	3.86 ± 0.49	4.98 ± 0.52	5.34 ± 0.50	4.24 ± 1.18	4.09 ± 2.17	706.00 ± 190.15	2.86 ± 0.86	327.83 ± 90.73	1.47 ± 0.46	Daily average weight gain compared with the vehicle group ([1]; 0.2 mg/kg (Aleglitazar: Day 4 and Day 5; Compound 2: throughout the study)): significantly higher; Weight Gain compared with Day 0 ([1]; Day 1, 0.2 mg/kg oral QD): 0.48 ± 0.27 g; Weight Gain compared with Day 0 ([1]; Day 2, 0.2 mg/kg oral QD): 1.66 ± 0.39 g; Weight Gain compared with Day 0 ([1]; Day 3, 0.2 mg/kg oral QD): 2.62 ± 0.42 g; Weight Gain compared with Day 0 ([1]; Day 4, 0.2 mg/kg oral QD): 3.50 ± 0.42 g; Weight Gain compared with Day 0 ([1]; Day 5, 0.2 mg/kg oral QD): 3.92 ± 0.4 g; Weight Gain compared with Day 0 ([1]; Day 6, 0.2 mg/kg oral QD): 4.81 ± 0.37 g; Weight Gain compared with Day 0 ([1]; Day 7, 0.2 mg/kg oral QD): 5.39 ± 0.56 g; Serum TG levels compared with the vehicle group ([3]; Day 6 and Day 12, Aleglitazar 0.2 mg/kg, Compound 2 at different dosages): significantly lower; Average daily body weights compared with the vehicle group ([3]; Day 10 to Day 15, Aleglitazar 0.2 mg/kg, Compound 2 0.05, 0.2, 1 mg/kg): significantly higher; Statistical difference (p) of the blood glucose level between OGTT treatment group and vehicle group ([3]; OGTT Day 14, 0 min): p < 0.001; Statistical difference (p) of the blood glucose level between OGTT treatment group and vehicle group ([3]; OGTT Day 14, 15 min): p < 0.01; Statistical difference (p) of the blood glucose level between OGTT treatment group and vehicle group ([3]; OGTT Day 14, 30 min): p > 0.05; Statistical difference (p) of the blood glucose level between OGTT treatment group and vehicle group ([3]; OGTT Day 14, 60 min): p < 0.01; Statistical difference (p) of the blood glucose level between OGTT treatment group and vehicle group ([3]; OGTT Day 14, 120 min): p < 0.01; Statistical difference (p) of the blood glucose level between treatment group and vehicle group ([3]; Day 0, 0.2 mpk): p > 0.05; Statistical difference (p) of the blood glucose level between treatment group and vehicle group ([3]; Day 7, 0.2 mpk): p < 0.05; Statistical difference (p) of the blood glucose level between treatment group and vehicle group ([3]; Day 14, 0.2 mpk): p < 0.01; Total score of renal focal lesions (infract, tubular dilation, tubular obstruction, fibrosis, necrosis) compared with model group [4]: did not achieve statistically significant improvement; Serum TG and NEFA levels compared with the vehicle group ([2]; Day 8, both 0.2 mg/kg and 0.6 mg/kg): significantly reduce
